Reference: patent US20230391786A1, “cGAS INHIBITORS” (Eli Lilly and Company, priority 2022, published 2023)

How the values were obtained:
recombinant human cGAS = recombinant human cGAS (Homo sapiens (Human), UniProt Q8N884); assay: In vitro inhibition assay of cGAS activity (cGAMP production, RapidFire mass spectrometry); format: biochemical; settings: 10 nM recombinant human cGAS, 60 nM 75-bp dsDNA, ATP, GTP, room temperature 3 hours, read-out: IC50 (μM), In vitro inhibition assay for Compounds 95-348
Outline: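 Product cGAMP was quantified by RapidFire MS against a difluoro-cGAMP internal standard after a formic acid quench. The reaction contained 10 nM recombinant full-length human cGAS, 75-bp dsDNA (60 nM), ATP and GTP (50 μM) and ran for 3 h at room temperature. IC50 values came from 4-parameter nonlinear regression.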

[1] = system: cGAS activity in THP1 cells (IFNb as marker); assay: Cellular assay to measure cGAS activity (IFNb production in PMA-differentiated THP1 cells stimulated by RDG-Adenovirus-GFP); format: cell-based, human; settings: Homo sapiens, THP-1, THP1 cells, PMA differentiated, RDG-Adenovirus-GFP 1000 MOI, IFNb AlphaLISA, overnight incubation; read-out: IC50 (μM), Cellular assay for Compounds 95-348
Outline: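 The readout is secreted IFNb measured by AlphaLISA after overnight compound exposure. THP1 cells, differentiated with PMA for 24 h and rested overnight, were infected with RDG-Adenovirus-GFP (1000 MOI, 4 h) before compounds were added; IC50 came from a 4-parameter logistic fit of inhibition against log concentration.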

Sequence of recombinant human cGAS (Q8N884 whole entry): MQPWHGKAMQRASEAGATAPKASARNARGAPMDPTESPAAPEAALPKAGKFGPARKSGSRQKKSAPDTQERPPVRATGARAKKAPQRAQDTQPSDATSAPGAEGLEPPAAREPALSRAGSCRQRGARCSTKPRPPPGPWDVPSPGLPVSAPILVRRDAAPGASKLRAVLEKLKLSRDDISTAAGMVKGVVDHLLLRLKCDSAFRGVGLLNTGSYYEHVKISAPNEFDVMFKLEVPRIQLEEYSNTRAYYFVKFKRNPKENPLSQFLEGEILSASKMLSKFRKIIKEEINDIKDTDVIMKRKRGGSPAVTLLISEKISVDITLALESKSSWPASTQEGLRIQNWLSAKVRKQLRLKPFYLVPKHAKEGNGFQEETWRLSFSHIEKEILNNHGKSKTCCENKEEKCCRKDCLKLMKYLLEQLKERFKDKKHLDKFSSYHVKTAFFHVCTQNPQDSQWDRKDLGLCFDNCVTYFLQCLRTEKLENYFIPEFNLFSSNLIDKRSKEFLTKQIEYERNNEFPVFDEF

IC50 (recombinant human cGAS) | IC50 [1] | Compound
0.0428 µM | > 10 µM | O=C(C1COCCOC1)N1CCn2c(c(-c3cn[nH]c3)c3ccc(Cl)c(Cl)c32)C1 [Example 310, (6,7-Dichloro-10-(1H-pyrazol-4-yl)-3,4-dihydropyrazino[1,2-a]indol-2(1H)-yl)(1,4-dioxepan-6-yl)methanone]
0.0385 µM | 0.492 µM | O=C(CO)Nc1cc(Cl)c(Cl)c2[nH]nc(-c3cn[nH]c3)c12 [Example 336, N-(6,7-Dichloro-3-(1H-pyrazol-4-yl)-1H-indazol-4-yl)-2-hydroxyacetamide]
0.0124 µM | 0.281 µM | O=C(Nc1cc(Cl)c(Cl)c2[nH]nc(-c3cn[nH]c3)c12)C(F)F [Example 337, N-(6,7-Dichloro-3-(1H-pyrazol-4-yl)-1H-indazol-4-yl)-2,2-difluoroacetamide]
0.00474 µM | 0.198 µM | OCCCOc1cc(Cl)c(Cl)c2[nH]c(CO)c(-c3cn[nH]c3)c12 [Example 338, 3-((6,7-Dichloro-2-(hydroxymethyl)-3-(1H-pyrazol-4-yl)-1H-indol-4-yl)oxy)propan-1-ol]
0.00789 µM | 0.426 µM | CN1CCn2c(c(-c3cn[nH]c3)c3c(OCCCO)cc(Cl)c(Cl)c32)C1=O [Example 339, 6,7-Dichloro-9-(3-hydroxypropoxy)-2-methyl-10-(1H-pyrazol-4-yl)-3,4-dihydropyrazino[1,2-a]indol-1(2H)-one]
0.0102 µM | 0.516 µM | N#CCOc1cc(Cl)c(Cl)c2[nH]c(CO)c(-c3cn[nH]c3)c12 [Example 340, 2-((6,7-Dichloro-2-(hydroxymethyl)-3-(1H-pyrazol-4-yl)-1H-indol-4-yl)oxy)acetonitrile]
0.0276 µM | 0.8 µM | COc1cc2c(-c3cn[nH]c3)cn(-c3cccnn3)c2cc1Cl [Example 341, 6-Chloro-5-methoxy-3-(1H-pyrazol-4-yl)-1-(pyridazin-3-yl)-1H-indole]
0.0261 µM | 0.964 µM | COc1cc2c(-c3cn[nH]c3)cn(-c3ccc(CO)nn3)c2cc1Cl [Example 342, (6-(6-chloro-5-methoxy-3-(1H-pyrazol-4-yl)-1H-indol-1-yl)pyridazin-3-yl)methanol]
0.00614 µM | 0.565 µM | CCOc1cc(Cl)c(Cl)c2c1c(-c1cn[nH]c1)c1n2CC[C@@H]1NC(=O)CO [Example 343, (S)—N-(5,6-Dichloro-8-ethoxy-9-(1H-pyrazol-4-yl)-2,3-dihydro-1H-pyrrolo[1,2-a]indol-1-yl)-2-hydroxyacetamide]
0.00338 µM | 0.902 µM | N#CCOc1cc(Cl)c(Cl)c2c1c(-c1cn[nH]c1)c1n2CC[C@@H]1NC(=O)CO [Example 344, (S)—N-(5,6-Dichloro-8-(cyanomethoxy)-9-(1H-pyrazol-4-yl)-2,3-dihydro-1H-pyrrolo[1,2-a]indol-1-yl)-2-hydroxyacetamide]
0.0122 µM | 0.865 µM | N#CCOc1cc(Cl)c(Cl)c2c1c(-c1cn[nH]c1)c1n2CCC1CO (stereo not drawn) [Example 347, 2-((5,6-Dichloro-1-(hydroxymethyl)-9-(1H-pyrazol-4-yl)-2,3-dihydro-1H-pyrrolo[1,2-a]indol-8-yl)oxy)acetonitrile]
0.00695 µM | 0.365 µM | OCCCOc1cc(Cl)c(Cl)c2c1c(-c1cn[nH]c1)c1n2CC(O)CC1 (stereo not drawn) [Example 348, 3,4-Dichloro-1-(3-hydroxypropoxy)-10-(1H-pyrazol-4-yl)-6,7,8,9-tetrahydropyrido[1,2-a]indol-7-ol]
